Activity calls are given as the source filed them. How the calls were made is not given here.
Each compound was assayed against Influenza A virus M2 proton channel (A/TW/4845/1999 H1N1) (assay: NMR binding screen, influenza A virus M2 proton channel, Kd (AID 1549)). Conditions: M2 protein.
For `c1ccc2c(c1)ncn2CCn1cnc2ccccc21`, the Kd was > 4 mM (inactive).
`O=c1ccc2c([nH]1)CCCC2` was tested, and the Kd was > 4 mM (inactive).
With `O=C(NC1CCS(=O)(=O)C1)C1CCCCC1` (centres undefined) the Kd was > 4 mM (inactive).
In the case of `NC(=O)Cc1nc2ccccc2[nH]1`, the Kd is reported as > 4 mM (inactive).
For `CCN1CC2(C)CC[C@H](OC)[C@]34C2[C@H](O)C2(OCO[C@@]25C[C@H](OC)[C@H]2C[C@]3(O)C5[C@H]2O)C14`, the Kd was > 4 mM (inactive).
`Cc1c(C)[n+]([O-])c(-c2ccc([N+](=O)[O-])cc2)n1O` was tested, and the Kd was > 4 mM (inactive).
`CC1(C)CC2C1CC[C@]1(C)CCC3C(C(=O)O)CC(=O)O[C@@]32C1` (some centres undefined) was tested, and the Kd was > 4 mM (inactive).
In the case of `COC(=O)CCSCC(=O)Nc1nnc(C)s1`, the Kd is reported as > 4 mM (inactive).
With `O=C(c1ccc(F)cc1)N1CCN(c2ncccn2)CC1` the Kd was > 4 mM (inactive).
In the case of `Nc1cc(C(=O)N2CCCC2)cc(C(=O)N2CCCC2)c1`, the Kd is reported as > 4 mM (inactive).
For `O=C1CS/C(=N/N=C2CCCC2)N1`, the Kd was > 4 mM (inactive).
In the case of `CC1(C)N=C2C(=N)C=CC=C2N1O`, the Kd is reported as > 4 mM (inactive).
`Cc1nn2c3ccccc3nc2n(Cc2ccccc2)c1=O` was tested, and the Kd was > 4 mM (inactive).
With `O=C(CN1CCOCC1)Nc1nccs1` the Kd was > 4 mM (inactive).
For `CCOC(=O)c1c(C)nc2sccn12`, the Kd was > 4 mM (inactive).
In the case of `O=C(c1ccc(N2CCNCC2)cc1)c1cccnc1`, the Kd is reported as > 4 mM (inactive).
In the case of `CC(=O)Nc1c(C)n(C)n(-c2ccccc2)c1=O`, the Kd is reported as > 4 mM (inactive).
`CCCn1c(C)cc(=O)[nH]c1=O` was tested, and the Kd was > 4 mM (inactive).
With `O=C(O)c1cc2ccccc2[nH]1` the Kd was > 4 mM (inactive).
With `CN1CCN(S(=O)(=O)c2ccc(=O)[nH]c2)CC1` the Kd was > 4 mM (inactive).
With `NC(=O)CSc1nnc2ccc(-c3ccco3)nn12` the Kd was > 4 mM (inactive).
For `Cc1cc(C)n(S(=O)(=O)c2cc(C)c(C)cc2C)n1`, the Kd was > 4 mM (inactive).
With `CSc1cccc(NC(=O)c2c(Cl)cnn2C)c1` the Kd was > 4 mM (inactive).
In the case of `Cn1c(CO)nc2cc(N)ccc21`, the Kd is reported as > 4 mM (inactive).
`O=C1CCCC(=O)N1c1ccc(O)cc1` was tested, and the Kd was > 4 mM (inactive).
In the case of `CC1(C)CC[C@]2(C)CC[C@]3(C)C(=CCC4[C@@]5(C)CC[C@H](O)C(C)(C)C5CC[C@]43C)C2C1` (some centres undefined), the Kd is reported as > 4 mM (inactive).
In the case of `COc1cc(OC)cc(-c2nc(N)n[nH]2)c1`, the Kd is reported as > 4 mM (inactive).
`CN1CCC(N2CCCC(C(N)=O)C2)CC1` (centres undefined) was tested, and the Kd was > 4 mM (inactive).
In the case of `Cc1nn(C)c(Cl)c1C(O)c1c(C)nn(C)c1Cl`, the Kd is reported as > 4 mM (inactive).
`COc1cc(OC)c2c(c1)O[C@H](c1ccc(OC)c(OC)c1)[C@@H](O)C2` was tested, and the Kd was > 4 mM (inactive).
In the case of `COc1cc(O)c2c(c1)C(=O)c1cc(C)cc(O)c1C2=O`, the Kd is reported as > 4 mM (inactive).
In the case of `O=C(COc1ccccc1Cl)N1CCCC1`, the Kd is reported as > 4 mM (inactive).
For `Cc1occc1C(=O)Nc1nnc(C(F)(F)F)s1`, the Kd was > 4 mM (inactive).
`O=C(NC12CC3CC(CC(C3)C1)C2)c1cnccn1` was tested, and the Kd was > 4 mM (inactive).
`NC1=NC(=O)C(Cc2cccc([N+](=O)[O-])c2)S1` (centres undefined) was tested, and the Kd was > 4 mM (inactive).
In the case of `CN1C(=O)c2ccc(N3CCCC3)cc2C1=O`, the Kd is reported as > 4 mM (inactive).
For `C=C(C)CSc1nc2nc(C)cc(C)n2n1`, the Kd was > 4 mM (inactive).
`NC(=O)N1CCc2ccccc21` was tested, and the Kd was > 4 mM (inactive).
`CCOCC(=O)N1CCc2ccccc21` was tested, and the Kd was > 4 mM (inactive).
For `Cc1nnsc1C(=O)Nc1cccc(S(N)(=O)=O)c1`, the Kd was > 4 mM (inactive).
In the case of `CCc1cccc(C)c1NC(=O)c1cc(C)oc1C`, the Kd is reported as > 4 mM (inactive).
For `CC1(C)N=C2C(=[N+]1[O-])CCC/C2=N\O`, the Kd was > 4 mM (inactive).
`COc1ccc([C@@H]2CC(=O)c3c(O)cc(O[C@@H]4O[C@H](CO[C@H]5O[C@@H](C)[C@H](O)[C@@H](O)[C@H]5O)[C@@H](O)[C@H](O)[C@H]4O)cc3O2)cc1O` was tested, and the Kd was > 4 mM (inactive).
In the case of `Nc1ccc(CCC(=O)O)cc1`, the Kd is reported as > 4 mM (inactive).
With `OC12CC3CC(CC(C3)C1)C2` the Kd was > 4 mM (inactive).
In the case of `CCc1ccccc1NC(=O)c1cnccn1`, the Kd is reported as > 4 mM (inactive).
For `CC1(C)C(=O)C=C[C@@]2(C)C1C=C[C@]1(C)C2CC[C@@]2(C)[C@H](c3ccoc3)OC(=O)C3OC321` (some centres undefined), the Kd was > 4 mM (inactive).
In the case of `Cc1cc(C)n(-c2cccc3cccnc23)n1`, the Kd is reported as > 4 mM (inactive).
In the case of `O=C1C2CCCCC2C(=O)N1c1ccc(O)cc1` (centres undefined), the Kd is reported as > 4 mM (inactive).
In the case of `CC1=C(C(N)=O)C(c2cccs2)C(C(N)=O)=C(C)N1`, the Kd is reported as > 4 mM (inactive).
In the case of `COC(=O)c1cn(C(=O)OC)c2ccccc12`, the Kd is reported as > 4 mM (inactive).
In the case of `CC(=O)NC(O)C(=O)c1cccs1` (centres undefined), the Kd is reported as > 4 mM (inactive).
With `O=C(O)c1ccc(-c2cccs2)cc1` the Kd was > 4 mM (inactive).
With `S=C1NC(=S)NC(c2ccc3c(c2)OCO3)N1` the Kd was > 4 mM (inactive).
For `O=C(O)Cc1c[nH]c2ccccc12`, the Kd was > 4 mM (inactive).
In the case of `CC(=O)Nc1cccc(NC(=O)c2ccco2)c1`, the Kd is reported as > 4 mM (inactive).
`Fc1ccc(Br)cc1/C=N/n1cnnc1` was tested, and the Kd was > 4 mM (inactive).
With `c1ccc2[nH]c(NCCN3CCOCC3)nc2c1` the Kd was > 4 mM (inactive).
For `O=C(O)CS(=O)(=O)c1ccccc1`, the Kd was > 4 mM (inactive).

— PubChem BioAssay AID1549 (Sanford-Burnham Center for Chemical Genomics, 2009)
